Each structure is given as a SMILES string.

Assay [1] relates to Panc-1 cells. In words: Matrigel invasion assay after irradiation. Type of assay: cell-based, human. The note with it: Panc-1, irradiation at 5 Gy, inhibitor at 5 and 10 μM added just before irradiation, 24 h. The protocol: The cells are irradiated with doses of 3, 5, or 10 Gy at room temperature using a ^137Cs source (Gamma Cell 40, Atomic Energy of Canada Ltd., Ontario, Canada) delivering 1.0 Gy/min.
Invasion of pancreatic cancer cells is measured by the invasion of cells through Matrigel-coated transwell inserts (Becton Dickinson, Franklin Lakes, N.J., USA) (Sato et al and Maehara et al ibid).
Briefly, transwell inserts with 8 μm pore are coated with Matrigel (40 μg/well, Becton Dickinson, Bedford, Mass., USA). Five hundred μl of cell suspension (1×10^5/ml) are added to the upper chambers. Same media of 750 μl are placed in the lower wells. Thereafter, the cells are irradiated and incubated for 24 h. Cells that have invaded to lower surface of the Matrigel-coated membrane are fixed with 70% ethanol, stained with H&E, and counted in five random fields under a light microscope.
(§1) Finally, we test whether a synthetic MMP inhibitor, N-hydroxy-2(R)-[[4 methoxyphenylsulfonyl](3-picolyl)amino]-3-methyl-butaneamide hydrochloride) monohydrate, could prevent the radiation-enhanced invasiveness. N-hydroxy-2(R)-[[4-methoxyphenylsulfonyl](3-picolyl)amino]-3-methyl-butaneamide hydrochloride) monohydrate is added to invasion chambers at final concentrations of 1, 5, and 10 μm just before irradiation.

The subject of assay [2] is Panc-1 cells. Kind of assay: Growth and viability of Panc-1 cells (cell proliferation assay). Type of assay: cell-based, human. The note with it: concentrations up to 10 μM. The protocol:
Cell proliferation is evaluated by measuring the fluorescence intensity of propidium iodide (PI) as described previously by Zhang et al. (Cancer Lett., 142: 129-137, 1999) with minor modifications. Briefly, cells are seeded in 24-well plates at a density of 3×10^4 cells per well. After overnight cultivation, cells are irradiated and cultured for 4 days. PI (30 μM) and digitonin ([…]) are added to each well to label all nuclei of the cells with PI. Fluorescence intensity corresponding to total cells in each well is measured by a multi-well plate-reader, CYTOFLUOR II (PerSeptive Biosystems Inc., Framingham, Mass., USA) with 530-nm excitation and 645-nm emission filters. The cell proliferation rate is calculated as the proportion of fluorescence intensity of each well at the time point indicated in the text to that at the day of irradiation.
as §1

The target in assay [3] is T1, MMP-2 (Homo sapiens, UniProt P08253).
T1 construct: The conditioned medium either from non-irradiated or irradiated Panc-1 cells is concentrated to 10-fold; endogenous in cells; host or cells: Panc-1 cells (conditioned medium)
T1 sequence (P08253 30-660): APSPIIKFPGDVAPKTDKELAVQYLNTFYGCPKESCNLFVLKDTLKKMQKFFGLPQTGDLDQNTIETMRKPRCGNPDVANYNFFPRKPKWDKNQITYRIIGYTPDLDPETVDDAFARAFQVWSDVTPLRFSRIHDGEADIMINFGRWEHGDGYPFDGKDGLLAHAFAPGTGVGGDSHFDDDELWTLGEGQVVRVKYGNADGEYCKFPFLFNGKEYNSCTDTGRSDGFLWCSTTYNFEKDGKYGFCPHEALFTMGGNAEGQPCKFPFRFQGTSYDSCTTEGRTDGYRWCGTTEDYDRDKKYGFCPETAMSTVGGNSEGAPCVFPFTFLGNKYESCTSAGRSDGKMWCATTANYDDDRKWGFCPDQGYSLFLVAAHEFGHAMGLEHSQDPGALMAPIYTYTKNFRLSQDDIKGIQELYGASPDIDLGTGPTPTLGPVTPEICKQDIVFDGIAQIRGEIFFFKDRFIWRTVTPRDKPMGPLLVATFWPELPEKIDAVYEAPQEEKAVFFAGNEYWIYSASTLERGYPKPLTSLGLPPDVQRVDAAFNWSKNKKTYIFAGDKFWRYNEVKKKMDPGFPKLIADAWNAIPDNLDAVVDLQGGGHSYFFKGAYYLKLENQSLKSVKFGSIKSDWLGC
Kind of assay: Gelatin zymography of conditioned medium from Panc-1 cells. The following applies: 5 μM, Panc-1 conditioned medium. The class given is cell-based. The protocol:
(§2) The conditioned medium either from non-irradiated or irradiated Panc-1 cells is concentrated to 10-fold with Centricon-10 (Amico, Beverly, Mass., USA). Samples are added to each lane and subjected to 10% SDS-polyacrylamide gel electrophoresis, using 10% polyacrylamide gel containing 1 mg/ml gelatin. After electrophoresis, the gel is washed in 2.5% Triton X-100, and incubated in 50 mM Tris-HCl buffer (pH8.0) containing 0.5 mM CaCl2 and 1 mM ZnCl2 for 20 hr at 37° C. The gel is stained with 1% Coomassie Brilliant Blue R-250 and destained with destaining buffer (5% acetic acid and 10% methanol).
(§3) To determine the role of gelatinases in the radiation-induced changes in invasive potential, we examine MMPs activity in Panc-1 cells before and after irradiation. Cells are incubated 24 h after irradiation and the conditioned medium is subjected to the gelatin zymography. Untreated Panc-1 cells secrete both latent and active forms of MMP-2 (72 kDa and 62 kDa gelatinases).
as §1

Assay [4] concerns the target T2, MMP-2 (Homo sapiens, UniProt P08253).
T2 construct: The conditioned medium either from non-irradiated or irradiated Panc-1 cells is concentrated to 10-fold; endogenous in cells; host or cells: Panc-1 cells (conditioned medium)
T2 sequence (P08253 110-660): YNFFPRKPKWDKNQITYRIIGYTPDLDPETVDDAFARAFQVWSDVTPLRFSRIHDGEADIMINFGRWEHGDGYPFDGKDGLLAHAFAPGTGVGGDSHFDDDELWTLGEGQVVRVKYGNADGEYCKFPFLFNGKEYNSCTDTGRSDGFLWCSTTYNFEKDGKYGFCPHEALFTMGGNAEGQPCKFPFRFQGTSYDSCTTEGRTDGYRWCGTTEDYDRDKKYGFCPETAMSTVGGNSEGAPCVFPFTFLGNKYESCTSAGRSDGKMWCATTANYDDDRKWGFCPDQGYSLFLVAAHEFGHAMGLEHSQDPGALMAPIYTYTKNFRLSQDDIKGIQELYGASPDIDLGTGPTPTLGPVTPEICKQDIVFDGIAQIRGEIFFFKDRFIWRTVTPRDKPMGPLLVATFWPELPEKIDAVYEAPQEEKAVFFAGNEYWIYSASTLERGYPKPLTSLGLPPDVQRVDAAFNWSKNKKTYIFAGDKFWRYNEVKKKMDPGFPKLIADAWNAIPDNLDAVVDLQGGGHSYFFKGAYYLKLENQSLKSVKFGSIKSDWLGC
The description is as above. Type of assay: cell-based. The following applies: 5 μM, Panc-1 conditioned medium. As for the experimental part: as §2, §3, §1
The source holds these as a separate data set.

As to `COc1ccc(S(=O)(=O)N(Cc2cccnc2)[C@@H](C(=O)NO)C(C)C)cc1.Cl.O` [N-hydroxy-2(R)-[[4-methoxyphenylsulfonyl](3-picolyl)amino]-3-methyl-butaneamide hydrochloride)monohydrate], the “increase in invaded cells after irradiation (radiation-enhanced invasion)” value in the assay on Panc-1 cells [1] is recorded as “significantly block the increase in invaded cells after irradiation”. The “growth and viability of Panc-1 cells” value in the assay on Panc-1 cells [2] is “does not affect the growth and viability”. For the same compound, on MMP-2 [3], the “enzymatic activity of latent type MMP-2 (gelatin zymography)” value was “without affecting”. Also, the “active type MMP-2 (gelatin zymography)” value at MMP-2 [4] is recorded as “markedly decreases”.
